# “And” between values parts separate entries of the source, which are not always exact repeats. Identical values can stand only once.
# Key:
# [1] = system: vinyl-modified RNA in Hela cells; assay: Metabolic RNA labeling; format: cell-based; settings: VU 2.5 mM 24 h, PINK 100 μM 5 h; diminished by RNase A/T1
# Procedure: The labeling approach was extended to vinyl-modified RNA. Hela cells were seeded in ibidi® 8-well plates (5.000 cells per well) and allowed to settle overnight. Cells were then incubated with 5-vinyl uridine (VU, 2.5 mM) for 24 h. After 19 h, PINK (100 μM final concentration) was added for 5 h. […]. Cells were fixed and optionally treated with RNase A/T1 mix (100 μg/mL RNase A; 250 U/mL RNase T1). Total cellular DNA was counterstained with Hoechst 33342 (5 μg/mL). Images were acquired on confocal microscopes under 20× (a) or 63× (b) magnification (FIG. 13).
# Metabolic RNA Labeling. Hela cells were seeded in μ-slide 8-well chambers (ibidi®), cat-#: 80826) at a density of 2.0×10^4 cells per mL (5.000 cells per well) and allowed to settle overnight. Cells were aspirated and 5-vinyl uridine (VU, 2.5 mM, 0.1% DMSO) was added. Cells were incubated for 19 h, at which point PINK (100 μM; 0.2% DMSO final concentrations) was added. After additional 5 h, cells were aspirated, washed with PBS, and fixed with 3.7% PFA in PBS for 15 min. Cells were quenched with 50 mM glycine/NH4Cl for 5 min, washed with PBS, and permeabilized twice with 0.2% Triton X-100 in PBS for 5 min each followed by washing with PBS, twice 100 mM NaOAc buffer (pH 5.2), 10% DMSO in PBS, and PBS for 5 min each. […]
# [2] = system: duplex DNA containing VdU (vinyl-modified ODN); assay: Kinetic measurements with ODNs (DNA-templated PINK-VdU reaction); settings: 50 mM aq. NaOAc buffer pH 5.2 (0.8% DMSO)
# Excerpt: A) Relative fluorescence units (RFU) of PINK upon reaction with vinyl-modified ODN versus time. […] B) Normalized increase of fluorescence. C) Plot of the observed rates k′ against PINK concentration. The slope yields the rate constant k.
# To characterize DNA-templated PINK-VdU reactions, a VdU-containing, palindromic 17-mer DNA oligonucleotide “ODN1” was synthesized (Table 1). The DMT-protected VdU phosphoramidite S4 (Scheme 2)^[51] was incorporated into the oligomer utilizing standard solid phase supported DNA synthesis. ODN1 was purified using reverse-phase HPLC and annealed with a complimentary strand to form a duplex. […] By tracking the fluorescence changes under pseudo-first order conditions (FIG. 8), an apparent rate constant k=590 M^−1 s^−1 was determined for the reaction between PINK and the duplex DNA containing VdU. […]
# Kinetic Measurements with ODNs. Second-order rate constants for the reaction between vinyl-modified ODN and PINK were determined under pseudo first order conditions employing an excess of the tetrazine. […] Measurements were performed on a SpectraMax M5 plate reader (Molecular Devices, Sunnyvale, CA, USA) in 384 well plates (Greiner bio-one, cat-#871906; 40 μL per well). […] Samples were measured over the course of 1 h in intervals of 45 s. […] Reactions rates were calculated using pseudo first order approximations fitting the measurements to mono exponential equations. […]
# [3] = system: calf thymus (CT) DNA; assay: Binding affinity measurements of PINK with CT-DNA (absorbance changes at 575 nm); settings: 10 μM PINK, CT-DNA 0-160 μM base pairs, 50 mM NaOAc buffer pH 5.2 (0.2% DMSO); 1 molecule per 5 base pairs; read-out: apparent dissociation constant (KD)
# Procedure: B) Fluorescence changes (excitation: 500 nm, emission: 590 nm; 515 nm cutoff filter) of 20 μM PINK in the presence of 1 mM b.p. CT-DNA (50 eq) in PBS pH 7.4 (10% DMSO) followed by addition of 5-norbornene-2-methanol (2 mM, 100 eq).
# To evaluate the ability of PINK (4) to undergo reversible intercalation into duplex DNA, the absorbance of PINK was monitored upon addition of calf-thymus (CT) DNA. Consistent with intercalation,^[42-44] a bathochromic shift in PINK absorbance was observed upon addition of CT DNA (FIG. 3, a). To further evaluate the binding mode, viscosity measurements of concentrated DNA solutions were conducted in presence of increasing amounts of PINK. […] By taking the maximum binding stoichiometry of PINK into account (1 molecule per 5 base pairs; see FIG. 1b), an apparent dissociation constant KD can be calculated according to KD=[(unbound PINK)*(unbound DNA binding sites)]/(PINK-bound binding sites).
# Binding Affinity Measurements of PINK with CT-DNA. Binding of PINK to CT-DNA was assessed by monitoring changes of absorbance collecting measurements on a SpectraMax M5 plate reader (Molecular Devices, Sunnyvale, CA, USA) in 1 cm path-length quartz cuvettes. […] Binding of PINK to CT-DNA and determination of an apparent binding constant (KD) was calculated by plotting changes of absorbance at 575 nm.
compound,measurement,setting,value
Cc1nnc(-c2ccc3cc4ccc(N(C)C)cc4nc3c2)nn1 [PINK],fluorescent signal of live-cell metabolic RNA labeling,[1],strong fluorescent signal
same,"apparent rate constant k, reaction with duplex DNA containing VdU","[2]; 4 μM vinyl-modified ODN, PINK 3-5 eq",590 M⁻¹ s⁻¹
same,stability of PINK under control conditions (without vinyl-modified ODN),"[2]; 12-20 μM PINK, 1 h",full stability
same,Kd,[3],5 µM and 5.1 µM
